Columns and labels:
[1] = wn = mass fraction of the nth substance listed; details: 303.15 K; for surface tension liquid-gas: Pendant drop shape; for viscosity / mass density: 100 kPa, Liquid; for viscosity: Concentric cylinders viscometry; for mass density: Vibrating tube method
[2] = for surface tension liquid-gas: Pendant drop shape; for viscosity / mass density: 101.33 kPa, Liquid; for viscosity: Concentric cylinders viscometry; for mass density: Vibrating tube method

C1CCC2=NCCC[NH+]2CC1.O=C([O-])C(F)(F)F [1,8-diazabicyclo[5.4.0]undec-7-enium trifluoroacetate] + O
[1]
Details	mass density [kg/m3]	surface tension liquid-gas [mN/m]	viscosity [mPa·s]
w2 = 0.001118	1256.6	31.98	493.76
w2 = 0.002196	1256.2	32.01	493.59
w2 = 0.003948	1255.7	32.06	493.33
w2 = 0.005067	1255.2	32.09	493.17
w2 = 0.006935	1254.6	32.14	492.85

C1CCC2=[NH+]CCCN2CC1.CC(=O)[O-] [2,3,4,6,7,8,9,10-octahydropyrimido[1,2-a]azepinium acetate]
[2]
Details	mass density [kg/m3]	surface tension liquid-gas [mN/m]	viscosity [mPa·s]
293.15 K	1076	36.88	164.74
303.15 K	1069.1	35.94	84.73
313.15 K	1062.3	34.6	48.34
323.15 K	1055.6	33.47	30.38
333.15 K	1048.7	32.38	20.36
343.15 K	1041.8	31.46	14.39
353.15 K	1034.9	30.63	10.59
363.15 K	1028	–	8.052

C1CCC2=[NH+]CCCN2CC1.O=S(=O)([O-])C(F)(F)F
[2]
Details	mass density [kg/m3]	surface tension liquid-gas [mN/m]	viscosity [mPa·s]
293.15 K	1361	30.39	1113.1
303.15 K	1352.7	29.8	524.23
313.15 K	1344.5	29.27	276
323.15 K	1336.7	28.83	158.89
333.15 K	1329	28.31	98.25
343.15 K	1321.2	27.71	64.4
353.15 K	1313.5	27.15	44.29
363.15 K	1305.9	–	31.75

C1CCC2=[NH+]CCCN2CC1.O=S(=O)([O-])C(F)(F)F + O
[1]
Details	mass density [kg/m3]	surface tension liquid-gas [mN/m]	viscosity [mPa·s]
w2 = 0.001106	1352.7	29.8	524.23
w2 = 0.002067	1352.2	29.74	524.18
w2 = 0.003286	1351.6	29.66	524.11
w2 = 0.004194	1351.1	29.6	524.06
w2 = 0.005671	1350.5	29.51	523.99

C1CCC2=[NH+]CCCN2CC1.CC(=O)[O-] [2,3,4,6,7,8,9,10-octahydropyrimido[1,2-a]azepinium acetate] + O
[1]
Details	mass density [kg/m3]	surface tension liquid-gas [mN/m]	viscosity [mPa·s]
w2 = 0.001127	1069.1	35.94	84.73
w2 = 0.002156	1068.4	35.99	84.7
w2 = 0.003932	1066.9	36.09	84.66
w2 = 0.005106	1065.9	36.15	84.62
w2 = 0.006373	1065	36.23	84.59

C1CCC2=NCCC[NH+]2CC1.O=C([O-])C(F)(F)F [1,8-diazabicyclo[5.4.0]undec-7-enium trifluoroacetate]
[2]
Details	mass density [kg/m3]	surface tension liquid-gas [mN/m]	viscosity [mPa·s]
293.15 K	1264.6	32.47	1193.2
303.15 K	1256.6	31.98	493.76
313.15 K	1248.9	31.52	236.97
323.15 K	1241.4	31.05	127.92
333.15 K	1234	30.65	75.72
343.15 K	1226.6	30.15	48.46
353.15 K	1219.2	29.74	32.94
363.15 K	1211.9	–	23.43

C1CCC2=NCCC[NH+]2CC1.CS(=O)(=O)[O-] [1,8-diazabicyclo[5.4.0]undec-7-enium methanesulfonate]
[2]
Details	mass density [kg/m3]	surface tension liquid-gas [mN/m]	viscosity [mPa·s]
293.15 K	1226.6	41.84	3310.1
303.15 K	1219.8	41.35	1177
313.15 K	1212.9	40.49	497.53
323.15 K	1206.1	39.58	241.49
333.15 K	1199.5	38.79	131.6
343.15 K	1193	38.23	78.46
353.15 K	1186.5	37.54	50.26
363.15 K	1180.2	–	34.12

C1CCC2=NCCC[NH+]2CC1.CS(=O)(=O)[O-] [1,8-diazabicyclo[5.4.0]undec-7-enium methanesulfonate] + O
[1]
Details	mass density [kg/m3]	surface tension liquid-gas [mN/m]	viscosity [mPa·s]
w2 = 0.001054	1219.8	41.35	1177
w2 = 0.001987	1219.37	41.43	1176.8
w2 = 0.003524	1218.75	41.56	1176.5
w2 = 0.004663	1218.3	41.69	1176.3
w2 = 0.005967	1217.81	41.78	1176.1

— the NIST ThermoML archive (doi:10.1016/j.jct.2016.10.021)
